# Experimental data from patent US20250206716A1, “Crystal form of Vonoprazan pyroglutamate and preparation method therefor” (HARWAY PHARMA CO., LTD, priority 2022, published 2025).
# Where a name gives a salt, the structure may show the parent alone.
# How the values were obtained:
# [1] = Deliquescence test (storage at 40° C. and 75% relative humidity); format: physicochemical; design: key: “Absence of deliquescence” refers to that no moisture absorption is observed on the sample surface; Slight: “slight deliquescence” refers to that moisture absorption is observed on the sample surface; Obvious: “obvious deliquescence” refers to that lubrication can be observed on the sample surface
# Protocol: • (1) Deliquescence test: The product A, crystal form I, and TAK-438 were stored at 40° C. and 75% relative humidity and observed for deliquescence for 30 days, with results recorded every 10 days as detailed in the table below.
# (§1) “Absence of deliquescence” refers to that no moisture absorption is observed on the sample surface, “slight deliquescence” refers to that moisture absorption is observed on the sample surface, and “obvious deliquescence” refers to that lubrication can be observed on the sample surface. • (2) Thermal stability test: The product A and crystal form I were stored separately in open containers at 60° C. and tested for storage stability after 30 days (Day 31). Samples at initial and after 30 days of storage were tested for purity by HPLC with three replicates per sample and averaged and the results are presented in the following table.
# [2] = Thermal stability test (open containers at 60° C., purity by HPLC); format: physicochemical; conditions: mean of three replicates; for Purity (%), Day 31: HPLC purity after 30 days in open container at 60° C.; for Purity (%), Initial point: HPLC purity before storage
# Protocol: The chromatographic conditions for HPLC purity testing of the product involved in the present invention are as follows:
# Column: Ultimate XB-C18, column length: 150 mm, inner diameter: 4.6 mm, particle size: 5 μm
# Flow rate: 1.2 mL/min; column temperature: 30° C.; wavelength: 210 nm; injection volume: 20 μL; solvent: acetonitrile-water (volume ratio 5:95)
# Mobile phase A: acetonitrile-0.02 mol/L potassium dihydrogen phosphate (adjusted to pH 2.5 with phosphoric acid) (volume ratio 5:95)
# Mobile phase B: methanol-acetonitrile-0.02 mol/L potassium dihydrogen phosphate (adjusted to pH 2.5 with phosphoric acid) (volume ratio 7:63:30)
# The proportions of mobile phases A and B over time are as follows:
# as §1
# H^+K^+-ATPase = molecular target: T1, H^+K^+-ATPase (Sus scrofa, UniProt P19156); assay: Inhibition of H^+K^+-ATPase in microsomal vesicles of porcine gastric mucosa; format: biochemical; conditions: pH 6.8, inorganic phosphorus readout
# T1 construct: H^+K^+ATPase was extracted from porcine gastric mucosal microsomal vesicles by iPhase; tissue iPhase; host or cells: porcine gastric mucosa, microsomal vesicles
# Text: Test method: H^+K^+-ATPase is an ATPase localized in gastric mucosal parietal cells and activated exclusively by K^+. In this experiment, H^+K^+-ATPase was extracted from the microsomal vesicles of porcine gastric mucosa, and ATPase could decompose ATP to generate ADP and inorganic phosphorus. The test article combined H^+K^+-ATPase and inhibited its activity. The level of ATPase activity was judged by measuring the amount of inorganic phosphorus, and the inhibitory effect of the test article was determined.
# H^+K^+ATPase was extracted from porcine gastric mucosal microsomal vesicles by iPhase.
# 100 mM TRIS-HCL (PH 6.8): 100 μL 1M TRIS-HCL was added to 900 μl ddH2O and mixed well.
# 37.5 mM MgCl2: 50 mg MgCl2 was added to […] ddH2O and mixed well. 200 mM KCl: 500 mg KCl was added to 33.5 mL ddH2O and mixed well. 10 mM nigericin and valinomycin: 669 μl and 890 μL DMSO were added and mixed, dispensed into 1 μL nigericin and 5 μl valinomycin per tube, and stored at −20° C.
# 0.1 mg/ml microsomal vesicles: Protein concentrations were determined upon arrival and dispensed, stored at −80° C., and diluted with 5 mM TRIS-HCL for use.
# Control compound: TAK438 was prepared as a 10 mM stock solution in DMSO and dispensed in 1 μL per tube.
# Test compound: Product A and crystal form I were prepared as 10 mM stock solutions in ddH2O, and dispensed in 1 μL per tube.
# With 20 μM (or 40 μM) as the highest concentration, the control compound and the test compound were diluted stepwise 3-fold with DMSO and ddH2O, respectively, to obtain the samples to be tested at 6 (or 7 or 8) concentration gradients.
# Water bath at 37° C. for 30 min, 16.5 μL ATP added and mixed well, and water bath at 37° C. for 30 min
# The chromogenic agent was prepared based on the instructions of *H^+K^+ ATP kit (Nanjing Jiancheng).
# Per the enzymatic reaction volume of 150 μL, 45 μl of chromogen was added and mixed well, allowed to stand for 2 min, and the absorbance light signal at 660 nm was read by a microplate reader.
# • 1) The inhibition rate was calculated according to the following formula: […]
# [3] = system: histamine-induced gastric acid secretion; assay: Effect on histamine-induced gastric acid secretion in rats; format: in vivo, SD rats
# Text: Surgical modeling: Rats were anesthetized with intraperitoneal injection of ethyl carbamate at a dose of 1.5 g/kg. Rats under complete anesthesia were shaved from the neck and abdomen, and were intubated to maintain airway patency during surgery. The cardiac perfusion tube was orally inserted about 1 cm into the stomach of rats, and the other end of the cardiac perfusion tube was connected to a constant flow pump. A small incision was made below the xiphoid cartilage to find the duodenum, an incision was made transversely, the end of the collection tube of gastric pyloric samples was passed along the duodenum into the stomach about 1 cm through the wound, the duodenum was tightened with the collection tube of gastric pyloric samples with a suture, and the other end of the duodenal incision was tightened. Gastric lavage remnants were rapidly flushed along the esophago-cardia cannula with 150 mL of 37° C. prewarmed saline, outflowed through the collection tube of gastric pylorus samples, and the abdominal wall was sutured to the skin. Perfusion was continued with normal saline at a rate of 1 mL/min for 30 min, the other end of the col-lection tube for gastric pyloric samples was left in vitro, gastric juice samples were collected in conical flasks (one sample per 20 min of col-lection), and two basal gastric juice samples were collected, at which time basal gastric acid secretion reached a steady state.
# Histamine-induced gastric acid secretion: Histamine was administered to rats by continuous tail vein injection with a microinjection pump at a dose of 20 μmol/kg/hr. Gastric acid was collected after 80 min, and after three time points, histamine secretion reached a steady state in rats, which was grouped according to the value of gastric acid secretion after histamine administration in rats, and candidate drugs or vehicle controls were administered based on the protocol. […] The details are as follows:
# The required amount of Vonoprazan fumarate was weighed, added with an appropriate amount of 0.5% CMC-Na, stirred, sonicated to obtain a homogeneous suspension, and diluted sequentially to the corresponding concentration according to the concentration required by the protocol.
# The required amount of HW-N2001 was weighed, added with appropriate physiological saline, and mixed thoroughly to obtain a clear solution, and the pH was adjusted to a range of 3.2 to 3.8. Based on the concentrations required by the protocol, the corresponding concentrations were successively diluted.
# One hundred and eighteen of 130 SD rats in good health were selected and randomly divided into 8 groups according to body weight and base-line value after histamine administration after the end of the adaptation period, as detailed in the table below.
# Collected gastric juice samples were taken and titrated with 0.01 N sodium hydroxide solution by a basic burette to PH7 as the endpoint, with the phenolphthalein indicator as a color indicator. The titration volume was measured and the acid secretion is calculated according to the following formula: acid secretion (μEq)=volume of NaOH (mL)×10^−3×0.01 mol/L×10^6.
# Two basal gastric juice samples were collected, and an infusion extension tube prematurely inhaled with histamine was connected to the indwelling needle of tail vein in rats after basal gastric acid levels were stabilized. The syringe pump was opened, and histamine was calculated according to the dose of 20 μmol/kg/hr and the intravenous drip rate of each animal in the syringe pump was set. Gastric acid samples after histamine administration were collected after 80 minutes of continuous injection of histamine solution.
# [4] = 0.375 mg/kg i.v., 60 min after administration
# [5] = 0.375 mg/kg i.v., 180 min after administration
# [6] = 0.75 mg/kg i.v., 20 min after administration
# [7] = 1.5 mg/kg i.v., 20 min after administration
# [8] = 1.5 mg/kg i.v., 80 min after administration
# [9] = 1.5 mg/kg i.v., 180 min after administration
# [10] = 2 mg/kg i.d., 60 min after administration
# [11] = 2 mg/kg i.d., 180 min after administration
# [12] = 4 mg/kg i.d., 40 min after administration
# [13] = 4 mg/kg i.d., 180 min after administration
# T1 sequence (P19156 2-1034 limits assumed): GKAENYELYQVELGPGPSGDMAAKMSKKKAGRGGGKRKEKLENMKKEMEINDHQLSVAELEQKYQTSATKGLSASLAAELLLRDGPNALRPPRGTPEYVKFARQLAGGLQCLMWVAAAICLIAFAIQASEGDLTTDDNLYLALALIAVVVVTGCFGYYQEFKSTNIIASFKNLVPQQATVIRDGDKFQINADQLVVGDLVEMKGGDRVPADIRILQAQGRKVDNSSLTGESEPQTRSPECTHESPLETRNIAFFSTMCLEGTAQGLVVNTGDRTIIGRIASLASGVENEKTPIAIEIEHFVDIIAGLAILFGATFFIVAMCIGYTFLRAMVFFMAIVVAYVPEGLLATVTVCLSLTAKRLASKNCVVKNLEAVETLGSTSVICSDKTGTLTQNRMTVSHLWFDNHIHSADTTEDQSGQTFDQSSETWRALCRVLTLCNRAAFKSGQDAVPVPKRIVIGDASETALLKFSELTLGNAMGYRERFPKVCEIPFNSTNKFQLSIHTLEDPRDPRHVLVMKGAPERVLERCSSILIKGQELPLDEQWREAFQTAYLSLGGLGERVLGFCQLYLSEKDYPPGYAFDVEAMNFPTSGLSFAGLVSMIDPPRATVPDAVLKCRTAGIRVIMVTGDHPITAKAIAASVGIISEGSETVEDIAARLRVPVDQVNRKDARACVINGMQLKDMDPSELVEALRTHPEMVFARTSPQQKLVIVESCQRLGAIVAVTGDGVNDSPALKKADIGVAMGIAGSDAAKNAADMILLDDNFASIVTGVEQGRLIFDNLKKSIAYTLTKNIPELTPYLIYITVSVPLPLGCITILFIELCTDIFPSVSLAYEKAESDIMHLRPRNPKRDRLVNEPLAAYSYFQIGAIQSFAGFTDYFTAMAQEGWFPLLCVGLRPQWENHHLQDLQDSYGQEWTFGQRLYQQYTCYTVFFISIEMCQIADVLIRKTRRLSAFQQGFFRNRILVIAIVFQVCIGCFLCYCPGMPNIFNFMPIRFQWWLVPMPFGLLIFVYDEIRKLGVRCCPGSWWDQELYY
# T1 sequence (P18434 whole entry partner): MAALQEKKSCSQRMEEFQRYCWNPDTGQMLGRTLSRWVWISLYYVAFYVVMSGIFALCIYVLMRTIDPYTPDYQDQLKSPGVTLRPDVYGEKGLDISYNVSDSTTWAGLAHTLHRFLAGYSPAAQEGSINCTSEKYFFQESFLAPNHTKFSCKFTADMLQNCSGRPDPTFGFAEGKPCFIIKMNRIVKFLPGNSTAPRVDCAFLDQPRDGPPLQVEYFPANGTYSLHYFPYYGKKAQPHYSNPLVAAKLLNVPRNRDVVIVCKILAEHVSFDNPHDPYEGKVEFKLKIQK
molecule,measurement,setting,value
5-(2-fluorophenyl)-N-methyl-1-(3-pyridylsulfonyl)-1H-pyrrole-3-methylamine pyroglutamate [Crystal form I],"Deliquescence, Day 10",[1],Absence of
same,"Deliquescence, Day 20",[1],Slight
same,"Deliquescence, Day 30",[1],Obvious
same,"Purity (%), Day 31",[2],99.2%
same,"Purity (%), Initial point",[2],99.8%
same,IC50,H^+K^+-ATPase,40.4 nM
same,Gastric acid secretion,[3]; [4],39.15±8.54 μEq HCl/20 min
same,Inhibition rate of gastric acid secretion,[3]; [4],4.34%±1.28
same,Gastric acid secretion,[3]; [5],28.46±5.71 μEq HCl/20 min
same,Inhibition rate of gastric acid secretion,[3]; [5],27.52%±1.43
same,Gastric acid secretion,[3]; [6],37.53±9.87 μEq HCl/20 min
same,Inhibition rate of gastric acid secretion,[3]; [6],11.6%±0.82
same,Inhibition rate of gastric acid secretion,"[3]; 0.75 mg/kg i.v., 180 min after administration",73.68%±1.47
same,Gastric acid secretion,[3]; [7],25.67±10.15 μEq HCl
same,Inhibition rate of gastric acid secretion,[3]; [7],33.28%±0
same,Gastric acid secretion,[3]; [8],3.4±1.18 μEq HCl
same,Inhibition rate of gastric acid secretion,[3]; [8],89.64%±0
same,Gastric acid secretion,[3]; [9],2.2±0.56 μEq HCl
same,Inhibition rate of gastric acid secretion,[3]; [9],93.56%±0.09
same,Time after administration at which pharmacodynamic effect reached a stable state,[3]; 0.75 and 1.5 mg/kg i.v.,60 to 100 min
same,Time after administration at which pharmacodynamic effect was gradually exerted,[3]; 0.75 and 1.5 mg/kg i.v.,20 min
same,ID50,"[3]; intravenous administration, 180 min after administration",0.53 mg/kg
5-(2-fluorophenyl)-N-methyl-1-(3-pyridylsulfonyl)-1H-pyrrole-3-methylamine pyroglutamate [Product A],"Deliquescence, Day 10",[1],Slight
same,"Deliquescence, Day 20",[1],Obvious
same,"Deliquescence, Day 30",[1],Obvious
same,"Purity (%), Day 31",[2],94.6%
same,"Purity (%), Initial point",[2],98.0%
same,IC50,H^+K^+-ATPase,53.4 nM
"CNCc1cc(-c2ccccc2F)n(S(=O)(=O)c2cccnc2)c1 [TAK-438, Vonoprazan fumarate]","Deliquescence, Day 10",[1],Absence of
same,"Deliquescence, Day 20",[1],Absence of
same,"Deliquescence, Day 30",[1],Absence of
same,IC50,H^+K^+-ATPase,41.5 nM
same,Gastric acid secretion after administration vs vehicle,"[3]; 1 mg/kg i.d., rats",not significantly decreased
same,Time after administration at which pharmacodynamic effect was gradually exerted,[3]; 2 mg/kg i.d.,60 min
same,Gastric acid secretion,[3]; [10],33.21±15.63 μEq HCl/20 min
same,Inhibition rate of gastric acid secretion,[3]; [10],13.71%±2.12
same,Gastric acid secretion,[3]; [11],16.21±14.46 μEq HCl/20 min
same,Inhibition rate of gastric acid secretion,[3]; [11],57.48%±2.27
same,Time after administration at which pharmacodynamic effect was gradually exerted,[3]; 4 mg/kg i.d.,140 min
same,Gastric acid secretion,[3]; [12],33.18±11.15 μEq HCl/20 min
same,Inhibition rate of gastric acid secretion,[3]; [12],12.47%±1.13
same,Gastric acid secretion,[3]; [13],4.41±4.02 μEq HCl/20 min
same,Inhibition rate of gastric acid secretion,[3]; [13],87.03%±0.81
same,Time at which strongest efficacy was reached,[3]; duodenal administration,180 min
same,ID50,"[3]; duodenal administration, 180 min",1.87 mg/kg
